# Entries after “also recorded” stand apart in the source; their conditions may differ.
# Columns and labels:
# HeLa-Luc-Cas9 cells = assay: sgRNA delivery to HeLa-Luc-Cas9 cells (luciferase editing, ONE-Glo+Tox); type: cell-based
# Experimental: sgRNA delivery to HeLa-Luc-Cas9 cells: Select ZALs were evaluated in the delivery of single guide RNA (sgRNA) to HeLa-Luc-Cas9 cells. In a white opaque 96-well plate tissue culture plate, HeLa-Luc-Cas9 cells were seeded at a density of 5×10^3 cells per well in 100 μL growth medium (DMEM without phenol red, 5% FBS), and allowed to attach overnight and then supplemented with an additional 100 μL DMEM. ZALs-sgRNA nanoparticles were formulated using the in vitro nanoparticle formulation protocol at the indicated lipid composition and weight ratio (maintaining 50:38.5 ZAL:cholesterol mole ratio, tuningPEG-lipid additive from 5% to 0.5%, and tuning weight ratio from 20:1 ZAL:sgRNA to 5:1 ZAL:sgRNA). Luciferase deletion was evaluated using a single guide RNA designed against luciferase using the CRISPR.mit.edu algorithm, while non-targeting control sgRNA (sgScr) was used as a negative control. The nanoparticles were added to the cells at a dose of 50 ng sgRNA per well and incubated with the cells for 24 h or 48 h. RNAiMax (Invitrogen) formulated according to the manufacturer's protocol with sgLuc or sgScr was used as a positive control. After 24 h or 48 h, the cell viability and luciferase expression were evaluated with the ONE-Glo+Tox Assay cell viability and luciferase assay (Promega).
# Select ZALs were evaluated in the delivery of single guide RNA (sgRNA) to HeLa-Luc-Cas9 cells. In a white opaque 96-well plate tissue culture plate, HeLa-Luc-Cas9 cells were seeded at a density of 5×10^3 cells per well in 100 μL growth medium (DMEM without phenol red, 5% FBS), and allowed to attach overnight and then supplemented with an additional 100 μL DMEM. ZNPs encapsulating sgRNA were formulated using the in vitro nanoparticle formulation protocol at the indicated lipid composition and weight ratio (maintaining 50:38.5 (ZAL:cholesterol mole ratio), tuning PEG-lipid additive from 5% to 0.5%, and tuning weight ratio from 20:1 ZAL:sgRNA to 5:1 ZAL:sgRNA). Non-targeting control sgRNA (sgCtrl) was used as a negative control. The nanoparticles were added to the cells at the appropriate dose of sgRNA and incubated with the cells for 48 h. The cell viability and luciferase expression were evaluated with the ONE-Glo+Tox Assay (Promega), normalized to untreated cells (N=4+/−standard deviation).
# [1] = tested on: Lox-Stop-Lox tdTomato (tdTO) cassette; assay: In vivo delivery of Cas9 mRNA and sgLoxP (tdTomato activation); set-up: species or system mice; details: 5 mg/kg
# Experimental: ZA3-Ep10 ZNPs encapsulating Cas9 mRNA and sgLoxp were prepared according to the in vivo nanoparticle formulation protocol using the Nanoassemblr microfluidic mixing device. The lipid mix contained 50 ZA3-Ep10:38.5 cholesterol:0.5 PEG-lipid molar ratios, and the particles were formulated at a 7.5:1 ZAL:total RNA weight ratio. The Cas9 mRNA:sgLoxP weight ratio was maintained at 4:1. […] After which they were sacrificed and the major organs imaged using the IVIS Lumina system for fluorescence expression (dsRed filter set) compared to an uninjected Rosa 26-LSL-tdTomato mouse. A liver specific Cre recombinase adeno-associated virus (Cre-AAV8) injected intravenously via tail vein injection (4 days) was used as a positive control.
# Tissue were fixed in 4% paraformaldehyde (PFA) at RT for 2 hours, then changed in 30% sucrose (in PBS) at 4° C. overnight. Then the tissues were embedded in Cryo-gel (Leica Biosystems), and frozen in dry ice. The blocks were sectioned using Cryostat machine (Leica Biosystems) at 8 μm thickness. […]
# For detection of Tomato positive populations, primary hepatocytes (2×10^6/mL) were isolated and stained with DAPI (Roche, 2 μg/mL) for dead cell exclusion. Cells were analyzed with BD FACSAria Fusion machine (BD Biosciences). Tomato positive cells were counted in DAPI negative (live cell) populations.
# [2] = tested on: HeLa-Luc-Cas9 cells; IGROV1 cells; assay: Delivery efficacy of ZA3-Ep10 versus cationic structural analogue (siLuc, sgLuc, Luc mRNA); type: cell-based; details: siRNA, sgRNA and mRNA cargos; 7.5:1 weight ratio
# Experimental: The ZNP or LNP formulation was fixed at 7.5:1 weight ratio ZAL or Cationic analogue to RNA. The lipid mixture for the NPs was 50:38.5:0.5 ZAL or cationic analogue: cholesterol: PEG-lipid, while for the A3-Ep14 NPs the zwitterionic phospholipid was titrated from 0 to 50% in the lipid mix. The nanoparticles were formulated by manual mixing using the in vitro formulation protocol. RNA binding was determined by the Ribogreen assay (N=3+/−standard deviation), while nanoparticle size was determined by dynamic light scattering (N=3+/−standard deviation). Luciferase silencing or editing of siLuc and sgLuc NPs was assayed in HeLa-Luc-Cas9 cells (7.35 nM sgRNA, 17.9 nM siRNA), while luciferase expression by Luc mRNA NPs was evaluated in IGROV1 cells (0.77 nM mRNA). Cells were assays after 40 h incubation time by the One-Glo+Tox assay and plotted with viability (dots) and luciferase expression (bars) as mean+/−standard deviation (N=4).
# [3] = PEG 2%, 1%, 0.5%, ZAL:sgRNA 20:1, 10:1, 7.5:1, 5:1, 7.4 nM, 48 h
smiles,measurement,setting,value
CCCCCCCCC(O)CN(CCC(=O)NCC[N+](C)(C)CCCS(=O)(=O)[O-])CCN(CCN(CC(O)CCCCCCCC)CC(O)CCCCCCCC)CCN(CC(O)CCCCCCCC)CC(O)CCCCCCCC (stereo not shown) [ZA3-Ep10],formulation with the best luciferase editing,HeLa-Luc-Cas9 cells; [3],7.5:1 weight ratio and 0.5% PEG
same,sgLuc delivery by formulations with tuned PEG content and weight ratio,HeLa-Luc-Cas9 cells; [3],potent
same,"sgRNA (sgLuc) delivery, rank among lead ZALs","HeLa-Luc-Cas9 cells; lead ZALs from the siRNA screen, HeLa-Luc-Cas9 cells, 48 h",most highly potent; also recorded: efficacious
same,luciferase expression versus sgRNA dose,"HeLa-Luc-Cas9 cells; sgLuc ZNPs, HeLa-Luc-Cas9 cells",dose-dependent decrease
same,luciferase silencing,"HeLa-Luc-Cas9 cells; sgRNA at 14.7 nM and 7.4 nM, 48 h, ZNPs 50:38.5:1 ZAL:cholesterol:PEG-lipid, 20:1 ZAL:sgRNA weight ratio",> 95%
same,fluorescent signal 2 months after treatment,[1],significant fluorescent signal in the liver and kidneys
same,efficacy compared with cationic analogue,[2],outperformed the cationic analogue supplemented with phospholipid

# Reference: patent US11685710B2, “Cationic sulfonamide amino lipids and amphiphilic zwitterionic amino lipids” (The Board of Regents of the University of Texas System, priority 2016, dated 2023)
